Assay results reported in US9249095B2, “2-methylthiopyrrolidines and their use for modulating bacterial quorum sensing” (priority 2011, dated 2016).

Tests used:
LasR = LasR (Pseudomonas aeruginosa, UniProt P25084); details: Smith et al, reference 9; cited from earlier work
[1] = test system: P. aeruginosa las AHL-mediated pathway (PlasI-lacZ reporter); assay: Anti-quorum sensing β-galactosidase assay, las biomonitor (PlasI-lacZ with lasR expressed in E. coli DH5α); assay type: cell-based, Pseudomonas aeruginosa; details: for effect on las activity / lasI promoter expression (in words): tested at 50-200 μg/mL against 2 μM 3-oxo-C12-AHL
Protocol: Anti-Quorum Sensing Assay (β-Galactosidase Assay). An overnight (O/N) culture of Escherichia coli DH5α harboring the plasmids pSC11, which contains a PlasI-lacZ translational fusion (24), and pJN105L, which contains a PBAD-lasR expression plasmid (25) grown in LB media (10 g tryptone, 5 g yeast extract, 5 g sodium chloride per liter) supplemented with ampillicin (100 μg/ml) and gentamycin (15 μg/ml), was diluted to an OD600 of 0.150. At this time, arabinose (0.2% w/v), N-3-(oxododecanoyl)homoserine lactone (3-oxo-C12-AHL; 2 μM), and either the compound under analysis or solvent (DMSO), was added to the culture (1.5 mL). A negative control containing only solvent and arabinose (0.2% w/v) was also assayed. The cultures were incubated with shaking for three hours at 37° C.
(§1) The conditions for the rhl biomonitor Escherichia coli DH5α harboring pECP61.5 plasmid, which contains Ptac-rhlR and PrhlA-lacZ (4), were essentially same except that the LB medium was only supplemented with ampillicin (100 μg/ml), the O/N culture was diluted to an OD600 of 0.150, induced with 1 mM IPTG, 2 μM C4—HSL and the compounds or the controls added when the OD600 reached 1.0. After incubation at 37° C. for 4 hours with shaking, β-galactosidase activity was assayed as described previously (28). Miller units were calculated as described (29). Assays were repeated at least twice. For each biological replicate, experimental triplicates were performed and the average percent activity calculated by dividing the average Miller units from the samples containing compound or extract by the average Miller units from the sample containing solvent and multiplying by 100. Significance of inhibition was determined using a paired two-tailed Student t-test.
(§2) Strains: E. coli DH5α harboring a PBAD-lasR expression plasmid and a PlasI-lacZ translational fusion plasmid was used as a biomonitor for the P. aeruginosa Las QS system, and e. coli XL-1Blue harboring a plasmid containing rhlA::lacZ translational fusion and Ptac-rhlR was used as a biomonitor for the P. aeruginosa Rhl QS system. V. harveyi strain B392 (MAV) was used.
Screening against las signaling. To determine the effect of the lactams (7, 16, and 17) and the cyclic azahemiacetal derivatives (10, 20 and 21) on the P. aeruginosa las AHL-mediated pathway, a las-dependent β-galactosidase reporter (PlasI-lacZ) was expressed with lasR in E. coli (24-25). […] The effect of synthetic compounds on the las activity was also compared with the addition of DMSO as a solvent. The propylthio lactam 7a and its azahemiacetal counterpart 10a were initially screened at a concentration of 100 μg/mL for their activity against the las system. […] This was dependent upon the addition of 2 μM of 3-oxo-C12-AHL. […] Cell growth was not inhibited by the addition of lactam and azahemiacetal compounds at the tested concentrations (data not shown).

Vibrio harveyi = assay: Luminescence assay in Vibrio harveyi; assay type: cell-based
Protocol: Luminescence Assay: Vibrio harveyi was grown in AB medium. A 2.5 mL aliquot of overnight culture of V. harveyi was added to 2.5 μL and 10 μL of each compound as well as the solvent. The compound was dissolved in water or DMSO to serve as a control. Growth and luminescence were measured simultaneously in a modified Spec20 for three hours. Growth was measured as OD600 and luminescence was recorded in light units (1 LU=6.51×10^8 quanta/sec/mL).
as §2

[2] = test system: P. aeruginosa rhl AHL-mediated pathway (PrhlA-lacZ reporter); assay: Anti-quorum sensing β-galactosidase assay, rhl biomonitor (PrhlA-lacZ with rhlR expressed in E. coli); assay type: cell-based, Pseudomonas aeruginosa; details: for activity at 50 µg/mL / activity at 100 µg/mL / activity at 150 µg/mL / activity at 200 µg/mL: Escherichia coli, 4 h, read-out: Percent Activity ± Standard Deviation (PrhlA-lacZ expression relative to DMSO treated control); for effect on rhl activity (in words): tested at 50-200 μg/mL against 2 μM C4-AHL
Protocol: as §1, §2
Screening Against the rhl Pathway. To determine the effect of the lactams (7, 16, and 17) and the cyclic azahemiacetal derivatives (10, 20 and 21) on the P. aeruginosa rhl AHL-mediated pathways, a rhl-dependent β-galactosidase reporter (PrhlA-lacZ) was expressed with rhlR in E. coli (24-25). […] The lactam analogues 7a-d stimulated rhl QS activities at higher concentrations with moderate potency. […] The strong inhibition observed with propylthio 10a and hexylthio 10b azahemiacetal analogues having side chain lengths similar to C4-AHL is in agreement with the structure activity relationship reported for various synthetic AHL mimetics targeting RhlR (26).

[3] = Pseudomonas aeruginosa, read-out: inhibition of las activity
[4] = Pseudomonas aeruginosa, read-out: inhibition of las reporter activity

LasR, sequence (P25084 whole entry): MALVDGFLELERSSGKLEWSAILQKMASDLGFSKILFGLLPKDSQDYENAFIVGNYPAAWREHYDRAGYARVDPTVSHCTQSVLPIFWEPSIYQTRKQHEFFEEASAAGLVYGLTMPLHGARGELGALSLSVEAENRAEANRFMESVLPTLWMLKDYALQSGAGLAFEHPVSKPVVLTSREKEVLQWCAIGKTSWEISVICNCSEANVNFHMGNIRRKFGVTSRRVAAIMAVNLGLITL

Compound | effect on las activity / lasI promoter expression (in words) [1] | activity at 50 µg/mL [2] [%] | activity at 100 µg/mL [2] [%] | activity at 150 µg/mL [2] [%] | activity at 200 µg/mL [2] [%] | effect on rhl activity (in words) [2] | further results
CCCCCCCCCC(=O)CC(=O)NC1CCCCC1=O (stereo not shown) [3-oxo-C12-(2-aminocyclohexanone)] | – | – | – | – | – | – | antagonism of LasR system (in words) (LasR): strong antagonist
CCCCCCCCCC(=O)CC(=O)N[C@H]1CCOC1=O [3-oxo-C12-AHL, N-3-(oxododecanoyl)homoserine lactone, reference compound] | activated the PlasI-lacZ | – | – | – | – | – | –
N[C@@H](CCSCC1C(O)C(O)C(=O)N1Cc1ccccc1)C(=O)O (stereo partly shown) [BDOH] | – | – | – | – | – | – | anti-QS effect against V. harveyi (in words) (Vibrio harveyi): strong anti-QS effect
CCCSCC1CCC(=O)N1 (stereo not shown) [Compound 7a, 5-(Propylthiomethyl)pyrrolidin-2-one] | inhibited las activity at all concentrations tested | 104 ± 24 | 118 | 104 ± 13 | 108 ± 17 | – | inhibition at 100 µg/mL [1, 3]: ~28%; effect on las activity / lasI promoter expression (in words) ([1]; listed as OMPP): dosed dependent inhibition
CCCCCCSCC1CCC(=O)N1 (stereo not shown) [Compound 7b, 5-(Hexylthiomethyl)pyrrolidin-2-one] | dosed dependent inhibition | 126 ± 8 | 126 ± 29 | 130 ± 31 | – | most active | –
CCCCCCCCCSCC1CCC(=O)N1 (stereo not shown) [Compound 7c, 5-(Nonylthiomethyl)pyrrolidin-2-one] | greatest inhibition at all concentrations tested | 95 ± 3 | 115 ± 30 | 108 ± 12 | 137 ± 46 | – | inhibition at 50 µg/mL [1, 3]: 28%
CCCCCCCCCCCCSCC1CCC(=O)N1 (stereo not shown) [Compound 7d, 5-(Dodecylthiomethyl)pyrrolidin-2-one] | greatest inhibition at all concentrations tested | 103 ± 7 | 106 ± 6 | 109 ± 8 | 106 ± 5 | – | inhibition at 50 µg/mL [1, 3]: 48%
CCCSCC1CCC(O)N1 (stereo not shown) [Compound 10a, 5-(Propylthiomethyl)pyrrolidin-2-ol] | – | 121 ± 6 | 138 ± 3 | – | 9 | inhibited rhl activity | anti-QS effect against V. harveyi (in words) (Vibrio harveyi): strong anti-QS effect; stimulation of las reporter activity ([1]; 50 μg/mL, 2 μM 3-oxo-C12-AHL): ~2.3 fold; enhancement of las reporter activity ([1]; 100 μg/mL, 2 μM 3-oxo-C12-AHL): 15%; inhibition at 150 µg/mL [1, 4]: 69%; inhibition at 200 µg/mL [1, 4]: 89%
CCCCCCSCC1CCC(O)N1 (stereo not shown) [Compound 10b, 5-(Hexylthiomethyl)pyrrolidin-2-ol] | stimulated QS at 50 μg/mL but with much lesser potency | 26 | – | – | – | inhibited rhl activity | inhibition of rhl signaling (in words) ([2]; concentrations of 100 μg/mL and higher): completely inhibited; inhibition of las activity ([1]; all concentrations tested higher than 50 μg/mL): 100%
CCCCCCCCCSCC1CCC(O)N1 (stereo not shown) [Compound 10c, 5-(Nonanylthiomethyl)pyrrolidin-2-ol] | moderate activity | 93 ± 12 | 80 ± 13 | 100 ± 11 | 99 ± 3 | inactive | –
CCCCCCCCCCCCSCC1CCC(O)N1 (stereo not shown) [Compound 10d, 5-(Dodecylthiomethyl)pyrrolidin-2-ol] | moderate activity | 98 ± 13 | 93 ± 27 | 91 ± 8 | 96 ± 5 | inactive | –
CCCCCCSCC1NC(=O)C(O)C1O (stereo not shown) [Compound 16, 3,4-Dihydroxy-5-(hexylthiomethyl)pyrrolidin-2-one] | inhibit las activity at all concentrations tested but only with moderate potency | 132 ± 36 | 129 ± 10 | 148 ± 9 | 161 ± 7 | stimulated rhl activities with moderate potency | –
CCCCCCCCCSCC1NC(=O)C(O)C1O (stereo not shown) [Compound 17, 3,4-Dihydroxy-5-(nonylthiomethyl)pyrrolidin-2-one] | inhibit las activity at all concentrations tested but only with moderate potency | 106 ± 3 | – | 115 ± 11 | 135 ± 5 | stimulated rhl activities with moderate potency | –
CCCCCCSCC1NC(O)C(O)C1O (stereo not shown) [Compound 20, 3,4-Dihydroxy-5-(hexylthiomethyl)pyrrolidin-2-ol] | inhibit las activity at all concentrations tested but only with moderate potency | 94 ± 8 | 105 ± 3 | 109 ± 12 | 116 ± 18 | stimulated rhl activities with moderate potency | –
CCCCCCCCCSCC1NC(O)C(O)C1O (stereo not shown) [Compound 21, 3,4-Dihydroxy-5-(nonylthiomethyl)pyrrolidin-2-ol] | inhibit las activity at all concentrations tested but only with moderate potency | 98 ± 5 | – | 116 ± 9 | 121 ± 14 | stimulated rhl activities with moderate potency | –
CCCC(=O)N[C@H]1CCOC1=O [Compound C4-AHL, N-butanoyl-L-homoserine lactone, reference compound] | – | – | – | – | – | activated the rhl β-galactosidase reporter | –
